Laboratory results as given in patent publication US8003695B2 (Chroma Therapeutics Ltd., priority 2006, dated 2011).
pIC50: −log10 of the molar value.

Columns and labels:
THP-1 cells = assay: LPS-Stimulation of THP-1 Cells, TNF-α release; format: cell-based; settings: Homo sapiens, LPS 1 μg/ml, 6 hrs, read-out: Inhibitor activity versus THP-1 TNFα release
Method: LPS-Stimulation of THP-1 Cells
THP-1 cells were plated in 100 μl at a density of 4×10^4 cells/well in V-bottomed 96 well tissue culture treated plates and incubated at 37° C. in 5% CO2 for 16 hrs. 2 hrs after the addition of the inhibitor in 100 μl of tissue culture media, the cells were stimulated with LPS (E. coli strain 005:85, Sigma) at a final concentration of 1 μg/ml and incubated at 37° C. in 5% CO2 for 6 hrs. TNF-α levels were measured from cell-free supernatants by sandwich ELISA (R&D Systems #QTA00B)

IKBKB (IKKβ) = biological target: T1, IKBKB (IKKβ) (Homo sapiens, UniProt O14920); assay: IKKβ Enzyme Assay (Z'-LYTE, Invitrogen); format: biochemical; settings: ATP at or close to Km; read-out: Inhibitor activity versus IKKβ
T1 construct: purchased Invitrogen (Paisley, UK)
T1 sequence (O14920 1-756): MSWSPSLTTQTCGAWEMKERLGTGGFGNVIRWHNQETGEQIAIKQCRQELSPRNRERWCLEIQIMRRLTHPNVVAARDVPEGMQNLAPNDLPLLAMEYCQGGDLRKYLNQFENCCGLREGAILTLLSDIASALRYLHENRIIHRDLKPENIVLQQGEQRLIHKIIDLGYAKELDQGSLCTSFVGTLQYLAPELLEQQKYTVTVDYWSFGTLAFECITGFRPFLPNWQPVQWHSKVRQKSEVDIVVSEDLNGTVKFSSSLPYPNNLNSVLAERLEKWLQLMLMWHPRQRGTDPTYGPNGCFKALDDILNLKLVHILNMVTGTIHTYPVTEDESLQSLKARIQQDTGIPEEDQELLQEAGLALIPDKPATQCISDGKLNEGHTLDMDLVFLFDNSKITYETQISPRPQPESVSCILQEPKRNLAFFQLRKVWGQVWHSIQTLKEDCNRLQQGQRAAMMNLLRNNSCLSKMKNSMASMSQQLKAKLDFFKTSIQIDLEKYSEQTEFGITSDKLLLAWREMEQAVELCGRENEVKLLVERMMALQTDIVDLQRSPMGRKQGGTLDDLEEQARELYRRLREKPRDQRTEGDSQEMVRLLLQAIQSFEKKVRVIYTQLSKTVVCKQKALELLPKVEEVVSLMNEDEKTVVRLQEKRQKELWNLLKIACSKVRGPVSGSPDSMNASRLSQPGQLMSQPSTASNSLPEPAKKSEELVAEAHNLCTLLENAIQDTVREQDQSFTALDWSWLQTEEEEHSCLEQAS
How it was run: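 Z'-LYTE FRET assay with 0.9-8.0 ng human IKBKB, 2 μM Ser/Thr 05 peptide and ATP at or near Km in HEPES pH 7.5, 60 min at room temperature, then 60 min development. Coumarin/fluorescein emission ratio read; duplicate nine-step ⅓-log series from 10 μM; IC50 from sigmoidal fit.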

human whole blood = assay: LPS-Stimulation of Human Whole Blood, TNF-α release; format: cell-based; settings: LPS 100 ng/ml, 6 hrs, read-out: Inhibitor activity versus human whole blood TNFα release
Method: LPS-Stimulation of Human Whole Blood
Whole blood was taken by venous puncture using heparinised vacutainers (Becton Dickinson) and diluted in an equal volume of RPMI1640 tissue culture media (Sigma). 100 μl was plated in V-bottomed 96 well tissue culture treated plates. 2 hrs after the addition of the inhibitor in 100 μl of RPMI1640 media, the blood was stimulated with LPS (E. coli strain 005:B5, Sigma) at a final concentration of 100 ng/ml and incubated at 37° C. in 5% CO2 for 6 hrs. TNF-α levels were measured from cell-free supernatants by sandwich ELISA (R&D Systems #QTA00B)

| pIC50 (THP-1 cells) | pIC50 (IKBKB (IKKβ)) | pIC50 (human whole blood) | Structure (SMILES) |
| --- | --- | --- | --- |
| 5.30 to 6.00 | 5.30 to 6.00 | 5.30 to 6.00 | CC(C)C[C@H](NCCc1cc(-c2cc(C(N)=O)c(NC(N)=O)s2)ccc1F)C(=O)OC1CCCC1 [Example 22, Cyclopentyl N-(2-{5-[4-carbamoyl-5-(carbamoylamino)thiophen-2-yl]-2-fluorophenyl}ethyl)-L-leucinate] |
| < 5.30 | > 6.00 | 5.30 to 6.00 | CC(C)C[C@H](NCc1ccc(-c2cc(C(N)=O)c(NC(N)=O)s2)cc1)C(=O)OC1CCCC1 [Example 2, Cyclopentyl N-{4-[4-carbamoyl-5-(carbamoylamino)-2-thienyl]benzyl}-L-leucinate] |
| 5.30 to 6.00 | > 6.00 | < 5.30 | CC(C)C[C@H](NC/C=C/c1ccc(-c2cc(C(N)=O)c(NC(N)=O)s2)cc1)C(=O)OC(C)(C)C [Example 42, tert-Butyl N-[(2E)-3-{4-[4-carbamoyl-5-(carbamoylamino)-2-thienyl]phenyl}-prop-2-en-1-yl]-L-leucinate] |

More lines, now with the values behind:

| Structure (SMILES) | pIC50 (THP-1 cells) | pIC50 (IKBKB (IKKβ)) | pIC50 (human whole blood) |
| --- | --- | --- | --- |
| CC(C)C[C@H](NC/C=C/c1ccc(-c2cc(C(N)=O)c(NC(N)=O)s2)cc1)C(=O)OC1CCCC1 [Example 29, Cyclopentyl N-[(2E)-3-{4-[4-carbamoyl-5-(carbamoylamino)-2-thienyl]phenyl}Prop-2-en-1-yl]-L-leucinate] | > 6.00 | > 6.00 | > 6.00 |
| CC(C)(C)OC[C@H](NCc1cccc(-c2cc(C(N)=O)c(NC(N)=O)s2)c1)C(=O)OC1CCCC1 [Example 11, Cyclopentyl O-tert-butyl-N-{3-[4-carbamoyl-5-(carbamoylamino)thiophen-2-yl]benzyl}-L-serinate] | 5.30 to 6.00 | > 6.00 | 5.30 to 6.00 |
| NC(=O)Nc1sc(-c2ccc(CN[C@H](C(=O)OC3CCCC3)c3ccccc3)cc2)cc1C(N)=O [Example 1, Cyclopentyl (2S)-({-4-[4-carbamoyl-5-(carbamoylamino)-2-thienyl]benzyl}amino)(phenyl)acetate] | 5.30 to 6.00 | 5.30 to 6.00 | 5.30 to 6.00 |
| Cc1cc(/C=C/CN[C@@H](CC(C)C)C(=O)OC2CCCC2)ccc1-c1cc(C(N)=O)c(NC(N)=O)s1 [Example 33, Cyclopentyl N-[(2E)-3-{4-[4-carbamoyl-5-(carbamoylamino)thiophen-2-yl]-3-methylphenyl}prop-2-en-1-yl]-L-leucinate] | > 6.00 | < 5.30 | 5.30 to 6.00 |
